Laboratory results from patent US8946201B2, “Methods for inhibiting TGF-β” (Saint Louis University, priority 2007, dated 2015).
“Also recorded” adds a separate entry of the source.

Legend:
[1] = system: Smad2 phosphorylation stimulated by TGF-β1; test: TGF-β1-stimulated Smad2 phosphorylation, Western blot, Mv1Lu cells; assay type: cell-based, mink
Procedure: Cells were treated with increasing concentrations of cholesterol, as indicated (A, B, C), 50 μg protein/ml LDL (D), 5 μg protein/ml VLDL (D) or 50 μg/ml cholesterol (E) at 37° C. for 1 hr and then further incubated with 50 pM TGF-β1 for 30 min. Phosphorylated Smad2 (P-Smad2) and total Smad2 in the cell lysates were analyzed by 7.5% SDS-PAGE and followed by immunoblot analysis using anti-P-Smad2 and anti-Smad2 antibodies. A representative of a total of 3 analyses is shown (top). The quantitative analysis of the immunoblots is shown (bottom). […] Smad2 nuclear translocation was analyzed by indirect immunofluorescent staining using P-Smad2 antibody and rhodamine-labeled 2nd antibody (E). Rhodamine fluorescence represents P-Smad2 staining (a,b,c) whereas the nuclei were stained by DAPI staining (d,e,f).
Cells grown to near confluence on 12-well cluster dishes were treated with cholesterol or LDL in serum-free DMEM (vol.=0.5 ml/well) at 37° C. for 1 hr. […] Treated cells were lysed and cell lysates were analyzed by 7.5% SDS-PAGE and Western blot analysis using anti-Smad2, anti-P-Smad2, anti-caveolin-1, anti-TβR-I (alk5) or anti-TβR-II antibodies as described previously (30). […]
It has been reported that TGF-β responsiveness is determined by TGF-β partitioning between lipid raft/caveolae-mediated and clathrin-mediated endocytosis. […]

pig burn wounds = test: Pig skin burn injury model: wound healing and scar; assay type: in vivo; details: topical; for wound closure / open wound: post-burn day 38
Procedure: FIG. 6. Wound closure and scar formation in pig burn wounds treated with cholesterol (CHO). Burn wounds treated with 0.025% cholesterol (A,B) and 0.00625% cholesterol (E,F) and vehicle only (C,D) were photographed immediately after burn injury (A,C,E) and at postburn day 38 (B,D,F). After burn injury, necrosis was present (white) (A,C,E).
Four pigs weighing 20-25 kg were anesthetized by intramuscular injection of ketamine (5 mg/kg), strenil (cazaporonum) (20 mg/kg) and atropine ([…]). Six uniform burn wounds (110° C., 30 sec) were then made symmetrically on the back of each pig using a modified soldering iron with a flat contact area of ˜20 cm^2. […] After wounding, IntraSite gels containing TGF-β antagonist and buffer vehicle (as control) were applied to the pig burn wounds. The burn wound received no topical gel treatment was also used as the other control. All wounds were dressed with paraffin gauze. TGF-β antagonist gel and control gel were applied to the wounds every two days for the first 10 days and twice a week for the next 30 days. All wounds were cleaned and measured prior to each application of the IntraSite gel.
Wound healing was assessed by evaluating the rates of wound re-epithelialization and contraction. The open wound area and the area enclosed by the normal hair bearing skin were measured using the macrophotography technique. The healing rate was monitored every two days for the first 10 days and twice a week for 30 more days. Wound re-epithelialization or contraction as a percent of the original wound size was calculated as described previously.
The volumes of scar were estimated by multiplying their thickness by the size of the scar on post-burn day 41 in pigs and on post-excision day 10 in rabbits.
These include: 1) Cholesterol treatment of cells suppresses TGF-β-induced cellular responsiveness including TGF-β induced Smad2 phosphorylation and nuclear translocation and TGF-β-induced expression of plasminogen activator inhibitor-1 (PAI-1). PAI-1 gene expression has commonly been used as an indicator of TGF-β-induced cellular responsiveness and PAI-1 is involved in inhibiting degradation of ECM proteins. And 2) Cholesterol treatment reverses TGF-β-induced growth inhibition in Mv1Lu cells. Since TGF-β negatively regulates normal wound healing and mediates skin fibrosis and scarring, we decided to test the effect of cholesterol on wound healing and scar formation in a pig skin burn injury model. Six thermal burns (110° C., 30 sec.; ˜20 cm^2, three on each side) were created on the back on each pig (20 kg, female). After wounding, two lesions were treated with a thin-layer of gel containing 0.025% cholesterol; two received gel containing 0.006% cholesterol and two received gel containing vehicle only. Cholesterol and cholesterol gels were applied every 2 days for the first 10 days and twice a week for the nest 30 days at which time re-epithelialization was measured and photographed. […] The volumes of the scar tissue in wound treated with 0.025% and 0.00625% cholesterol were 0.01 and 0.20±0.04 cm^3, respectively. The volume of the scar tissue in wounds treated with vehicle only was 0.45±0.03 cm^3.

## CC(C)CCC[C@@H](C)[C@H]1CC[C@H]2[C@@H]3CC=C4C[C@@H](O)CC[C@]4(C)[C@H]3CC[C@]12C [cholesterol]
[1]; 25 μg/ml, 37° C. 1 hr, then 50 pM TGF-β1 0.5 hr, Mv1Lu cells
  suppression of Smad2 phosphorylation stimulated by TGF-β1: 55%
[1]; at concentrations of 6 or 10 μg/ml, Mv1Lu, BAEC, NRK cells (FIG. 1)
  effect on Smad2 phosphorylation: appreciably suppressed
Pig burn wounds; 0.00625% cholesterol gel
  volume of the scar tissue: 0.20±0.04 cm^3
  wound closure / open wound: no and almost complete
Pig burn wounds; 0.025% cholesterol gel
  surface of wounds: very smooth without apparent scar
  volume of the scar tissue: 0.01 cm^3
  wound closure / open wound: very little open wound; also recorded: complete
